In patent US6403647B1, “Pulsed administration of compositions for the treatment of blood disorders” (priority 1996, dated 2002):
Entries after “also recorded” stand apart in the source; their conditions may differ.

How the values were obtained:
[1] = DNA fragmentation assays (cell viability); type: cell-based
Source text: Normal cell viability, the viability of an untransformed or uninfected cell, can be determined from analyzing the effects of the composition on one or more biological processes of the cell. Detrimental interference with one or more of these cellular processes becomes significant when the process becomes abnormal. Examples of quantitatable and qualifiable biological processes include the processes of cell division, protein synthesis, nucleic acid (DNA or RNA) synthesis, nucleic acid (principally DNA) fragmentation and apoptosis. Others processes include specific enzyme activities, the activities of the cellular transportation systems such as the transportation of amino acids by system A (neutral), system B (acidic) or system C (basic), and the expression of a cell surface protein. […] Abnormal cell division, for example, can be mitosis which occurs too rapidly, as in a malignancy, or unstably, resulting in programmed cell death or apoptosis, detected by increased DNA degradation. The determination of abnormal cell viability can be made on comparison with untreated control cells. Compositions preferably increase normal cell viability. Increased cell viability can be determined by those of ordinary skill in the art using, for example, DNA fragmentation analysis. […] Determinations of increased or decreased viability can also be concluded from an analysis of the results of multiple different assays. Where multiple tests provide conflicting results, accurate conclusions can still be drawn by those of ordinary skill based upon the cell type, the correctness or correlation of the tests with actual conditions and the type of composition.
Patients with blood disorders are typically quite infirm with, for example, iron damaged organs and systems. Most treatments further tax the patient's already frail health in an effort to combat the disorder.

[2] = Weekly versus pulse butyrate therapy in sickle cell and beta thalassemia patients; type: in vivo, human; parameters: F-retics On / F-cells On: unit not given here
Method: To determine if arginine butyrate can be used for therapeutic benefit, two low-dose regimens of butyrate were studied. Treatment were given intermittently either weekly, or in a pulse fashion, at 2-3 week intervals. […]
Patients were treated by pulse therapy for 4-18 months with arginine butyrate. […] It is preferred to avoid prolonged treatment with high doses of butyrate, which cause cellular growth arrest in G1, and can enhance the accelerated apoptosis of beta thalassemia. Partial tolerance observed with long-term weekly therapy appears related to erythroid cell growth arrest and a decline in EPO levels as Hgb and Hct rise and depletion of available iron stores. Treatment with additional doses of iron supplements can overcome some of the anti-proliferative activities of butyrate in vitro. Time required on therapy has been only 25%-35% of the treatment days per month necessary for effective transfusion and iron chelation. This has improved the quality of life of some patients.
To determine if these potentially opposing actions can be balanced for therapeutic effect, two intermittent schedules of butyrate were compared in 21 treatment courses in 14 patients ages 3 to 55 years, with sickle cell disease or β thalassemia. An optimal dose was identified on an individual patient regimen and continued on a weekly basis in eleven patients. Providing 7 to 14 days without any drug exposure to facilitate proliferation of treated cells, an alternate week regimen or pulse therapy, was administered to twelve patients (see Tables V, VI and VI).
A series of ten patients with sickle cell anemia and β-thalassemia were treated with continuous therapy with arginine butyrate. In 3 out of 4, transfusion requirement was diminished. […] The mean peak in total HgB which was detectable in the ten patients over their baseline was 1.6 gm/dl.
Patients were next administered a pulse therapy regimen. Each session comprised eight to twelve hours of nightly infusions. […] Total increases in Hgb were sustained as high as 3.0 g/dl above baseline levels with a mean increase of 2.1 g/dl in 8 out of 12 patients (p<0.05, paired t-test, chi square).

[3] = pulse therapy, 4/6 severe thalassemia patients
[4] = weekly therapy, patient Hb SS, 24 weeks
[5] = weekly therapy, patient HbSS, 4 weeks
[6] = weekly therapy, patient frameshift 5, 5 weeks
[7] = weekly therapy, patient β-39,-39, 8 weeks
[8] = weekly therapy, patient βIVS I, 1-6, 40 weeks

arginine butyrate
cell viability in DNA fragmentation assays [1]: decrease cell viability
fetal hemoglobin levels ([2]; 4 days, infusions about 8 hours per day, followed by 7 days of no treatment): rise substantially
patients with diminished transfusion requirement ([2]; continuous therapy): 3 out of 4
mean peak in total HgB over baseline ([2]; continuous therapy, ten patients): 1.6 gm/dl
patients responding hematologically ([2]; intermittent pulse therapy): 8/10
transfusion-dependency ([2]; pulse regimen, thalassemia major): eliminated previous transfusion-dependency; also recorded: Transfusion-dependency was eliminated
hematologic responses above baseline levels ([2]; pulse therapy): 2-5 gram/dl
patients with fetal globin genes reactivated to a hematologically compensating degree ([2]; pulse therapy for 4-18 months): 8 out of 12
total increases in Hgb above baseline, sustained ([2]; pulse therapy regimen): ≤ 3.0 g/dL
mean increase in Hgb above baseline ([2]; pulse therapy regimen, 8 out of 12 patients): 2.1 g/dL
increase in total Hb levels [2, 3]: 2-3 grams/dl
total Hb level reached [2, 3]: > 9.0 gm/dl
Hb F reached ([2]; pulse therapy, patient): 29%
Increase in Total Hgb ([2]; pulse therapy, patient HbE/?, 15 weeks): 1.7 g/dL
Non-∀/∀* On (non-α: α globin chain synthesis ratios) ([2]; pulse therapy, patient HbE/?, 15 weeks, Base 0.17): 0.25
F-cells On ([2]; pulse therapy, patient HbE/?, 15 weeks, Base 79): 84
Percent HbF On ([2]; pulse therapy, patient HbSS, 7 weeks, Base 0.5): 1.5%
F-retics On ([2]; pulse therapy, patient HbSS, 7 weeks, Base 8): 9.3
F-cells On ([2]; pulse therapy, patient HbSS, 7 weeks, Base 11): 8
Percent HbF On ([2]; pulse therapy, patient HbSS, 9 weeks, Base 0.5): 1.0%
F-retics On ([2]; pulse therapy, patient HbSS, 9 weeks, Base 0.7): 6.7
F-cells On ([2]; pulse therapy, patient HbSS, 9 weeks, Base 15): 0.5
Increase Total Hgb ([2]; pulse therapy, patient HbSS, 11 weeks): +1.0 g/dl
Percent HbF On ([2]; pulse therapy, patient HbSS, 11 weeks, Base 3): 24%
F-retics On ([2]; pulse therapy, patient HbSS, 11 weeks, Base 18): 25
F-cells On ([2]; pulse therapy, patient HbSS, 11 weeks, Base 28): 58
Increase Total Hgb ([2]; pulse therapy, patient HbSS, 15 weeks): +2.0 g/dl
Percent HbF On ([2]; pulse therapy, patient HbSS, 15 weeks, Base 6.9): 22%
F-retics On ([2]; pulse therapy, patient HbSS, 15 weeks, Base 12.6): 24
F-cells On ([2]; pulse therapy, patient HbSS, 15 weeks, Base 23): 59
Increase Total Hgb ([2]; pulse therapy, patient HbSS, 18 weeks): +2.0 g/dl
Percent HbF On ([2]; pulse therapy, patient HbSS, 18 weeks, Base 8): 35%
F-retics On ([2]; pulse therapy, patient HbSS, 18 weeks, Base 35): 46
F-cells On ([2]; pulse therapy, patient HbSS, 18 weeks, Base 50): 65
Increase Total Hgb ([2]; pulse therapy, patient HbSS, 28 weeks): +1.0 g/dl
Percent HbF On ([2]; pulse therapy, patient HbSS, 28 weeks, Base 6): 29%
F-retics On ([2]; pulse therapy, patient HbSS, 28 weeks, Base 18): 36
F-cells On ([2]; pulse therapy, patient HbSS, 28 weeks, Base 42): 56
Non-∀/∀* On (non-α: α globin chain synthesis ratios) ([2]; pulse therapy, patient frameshift-5, 24 weeks, Base 0.5): 0.75
F-cells On ([2]; pulse therapy, patient frameshift-5, 24 weeks, Base 100): 100
Increase in Total Hgb ([2]; pulse therapy, patient β-39-87, 68 weeks): 3.6 g/dL
Non-∀/∀* On (non-α: α globin chain synthesis ratios) ([2]; pulse therapy, patient β-39-87, 68 weeks, Base 0.6): 1.1
F-cells On ([2]; pulse therapy, patient β-39-87, 68 weeks, Base 29): 100
Increase in Total Hgb ([2]; pulse therapy, patient β-39, 7 weeks): 3.0 g/dL
Non-∀/∀* On (non-α: α globin chain synthesis ratios) ([2]; pulse therapy, patient β-39, 7 weeks, Base 0.4): 0.9
F-cells On ([2]; pulse therapy, patient β-39, 7 weeks, Base 100): 100
Increase in Total Hgb ([2]; pulse therapy, patient βIVS I-1, 4 weeks): 2.1 g/dL
Non-∀/∀* On (non-α: α globin chain synthesis ratios) ([2]; pulse therapy, patient βIVS I-1, 4 weeks, Base 0.5): 0.9
F-cells On ([2]; pulse therapy, patient βIVS I-1, 4 weeks, Base 100): 100
Non-∀/∀* On (non-α: α globin chain synthesis ratios) ([2]; pulse therapy, patient βIVS II, 33 weeks, Base 0.5): 0.7
F-cells On ([2]; pulse therapy, patient βIVS II, 33 weeks, Base 10): 16
patients with desired hematologic responses ([2]; pulse therapy, sickle cell and beta thalassemia patients): 8 of 12
adverse side effects ([2]; up to 17 months of home therapy and 350 weeks of patient treatment): No significant adverse side effects
Hb F responses ([2]; weekly therapy): 4-10%
patients with biochemical (Hb F) responses ([2]; weekly therapy): 8/10
patients with biochemical increases in fetal globin expression ([2]; weekly therapy): 8/11
rises in total hemoglobin, mean ([2]; weekly therapy): 1.6 gm/dl
increases in total Hb above baseline levels ([2]; weekly therapy, in 6/10): 1-4 gram/dl
Comments [2, 4]: response declined
Increase in Total Hgb [2, 4]: +2.0 gm/dl
F-retics On ([2]; weekly therapy, patient Hb SS, 24 weeks, Base 12.7): 35.3
Comments ([2]; weekly therapy, patient HbE/?, 9 weeks): transfusions cont.
F-retics On ([2]; weekly therapy, patient HbE/?, 9 weeks, Base 42): 52.7
Comments ([2]; weekly therapy, patient HbS, β-39, 6 weeks): transfusions cont.
F-retics On ([2]; weekly therapy, patient HbS, β-39, 6 weeks, Base 4): 20
Comments [2, 5]: response declined
Increase in Total Hgb [2, 5]: +1.0 gm/dl
F-retics On ([2]; weekly therapy, patient HbSS, 4 weeks, Base 14): 30.7
Comments [2, 6]: response declined
Increase in Total Hgb [2, 6]: +1.0 gm/dl
F-retics On ([2]; weekly therapy, patient frameshift 5, 5 weeks, Base 0.5): 1
Comments ([2]; weekly therapy, patient β(-39-39), 8 weeks): AIHA, trans. cont.
F-retics On ([2]; weekly therapy, patient β(-39-39), 8 weeks, Base 60): 77
Comments [2, 7]: plateaued
Increase in Total Hgb [2, 7]: 1.5 gm/dl
F-retics On ([2]; weekly therapy, patient β-39,-39, 8 weeks, Base 76): 68
Increase in Total Hgb ([2]; weekly therapy, patient β-39-87, 16 weeks): +2.3 gm/dl
F-retics On ([2]; weekly therapy, patient β-39-87, 16 weeks, Base 64.7): 67.3
Comments [2, 8]: response declined
Increase in Total Hgb [2, 8]: +4.3 gm/dl
F-retics On ([2]; weekly therapy, patient βIVS I, 1-6, 40 weeks, Base 56): 75
Increase in Total Hgb ([2]; weekly therapy, patient βIVS II-745, 7 weeks): 3 gm/dl
F-retics On ([2]; weekly therapy, patient βIVS II-745, 7 weeks, Base 4): 16
rises in total hemoglobin, mean ([2]; weekly therapy, the 6 responsive patient (6/9 treated)): 2.4 gm/dl
